Patent publication US12140559B2, “Cell analysis using ChemFET sensor array-based systems” (LIFE TECHNOLOGIES CORPORATION, priority 2018, dated 2024)
Like-named read-outs stand apart in the source and are kept apart here.

Experiments:
HASM cells = HASM cells tested individually on separate device
From the text: (§1) For the experiments for which data is presented in FIG. 13A through FIG. 13C, three distinct cell types were chosen to test for the ability of the instrument to discriminate cell type based on response to FCCP. To generate the data set comparing widely varying cell types, donor-derived primary human aortic smooth muscle (HASM) cells (HASMC; Gibco cat# C0075C), human cervical cancer cells (HeLa cells; ATCC catalogue number CRM CCL 2) and a mouse-derived […] cell line (MMM cells; ATCC catalogue number J774A.1) were selected for the study.
(§2) FIG. 13A through FIG. 13C are average background-subtracted temporal dose-responses curves for each type of cell line tested individually on separate devices. FIG. 13A is set of dose-response curves for HASM cells, FIG. 13B is a set of dose-response curves for HeLa cells, and FIG. 13C is a set of dose-response curves for MMM cells. For the data shown in FIG. 14A through FIG. 14C, a mixture of the cells were exposed to 100 μM FCCP and their responses recorded in order to understand whether or not the different cell types could be identified by their response to FCCP. FIG. 14A illustrates composite temporal dose-response curves for selected cells in a mixture of different cell types in which the cells were subjected to FCCP. FIG. 14B is an electroscopic image of the experiment of FIG. 14A taken at a time corresponding to frame 40 (2.7 seconds), in which squares within the cells indicate the pixels that were sampled for the data of FIG. 14A. FIG. 14C is the electroscopic image of FIG. 14B for which the squares within the cells in […] have removed to provide a clear image of the cells.
(§3) The sensor array devices used in experiments from which data for FIG. 13A though FIG. 14C was generated was a Chip 2 device of FIG. 3, selective for sensing hydrogen ion, and included a microwell array.

HeLa cells = HeLa cells tested individually on separate device
From the text: as §1, §2, §3

MMM cells = MMM cells tested individually on separate device
From the text: as §1, §2, §3

HEPG2 cells = conditions: 100 μM; seen for some cells (CHEPG1, CHEPG2), not all (CHEPG3)
Protocol: The HEPG2 cells were resuspended at 1×10^6 cells per mL and plated onto chips for overnight incubation in a cell culture incubator to allow the cells to adhere to the prepared surface of the chip.

U-2OS cells = conditions: series of concentration jumps
From the text: FIG. 12A illustrates averaged background-subtracted temporal dose-response curves for U-2OS cells treated with FCCP. FIG. 12B illustrates averaged background-subtracted temporal dose-response curves for U-2OS cells pretreated with a nutrient solution containing oligomycin before being treated with FCCP.
Both Chip 1 and Chip 2 devices were ISFET devices selective for sensing hydrogen ion, and included a microwell array. […] The U-2OS cells were resuspended at 1×10^6 cells per mL and plated onto chips for overnight incubation in a cell culture incubator to allow the cells to adhere to the prepared surface of the chip. To test for dose-dependence of the FCCP treatment, cells were exposed to a series of concentration jumps during the experiment as indicated in FIGS. 12A and FIG. 12B. In FIG. 12A, experiments were carried out in the absence of oligomycin, and in 12B, the FCCP dose-response curve was generated in the presence of oligomycin.
The data in FIG. 12A and FIG. 12B are composed of averaged cellular responses from samples tested with FCCP.

[1] = system: voltage-gated calcium ion channels; experiment: ChemFET sensor array: 30 mM KCl depolarizing stimulus in presence of calcium channel blocker, control vs transfected U-2OS cells; format: cell-based; conditions: 10 μM, U-2OS control cells vs U-2OS transfected with voltage-gated calcium channel alpha, beta and alpha-2-delta subunits
From the text: FIG. 9A illustrates temporal response curves for U-2OS cells (C1 and C2) and U-2OS cells transfected with voltage-gated calcium channel alpha, beta and alpha-2-delta subunits (C3 and C4). The temporal response curves presented in FIG. 9A represent data collected over an area of interest for the U-2OS cells in comparison to transfected U-2OS cells, in which the impact of cell response for each type of cell treated with the calcium ion channel blocker verapamil was monitored through a cycle of an initial state of resting potential, followed by conditions for depolarization of membrane potential, and return to resting potential.
Briefly, the sensor array device surface was soaked for 30 minutes with 70% ethanol in water, then rinsed with PBS before adding a solution of 0.1% poly-D-lysine, which was allowed to sit for two hours. The device was then rinsed twice with 200 μL of a cell culture medium, for example, McCoy's 5A modified medium with 10% fetal calf serum. After rinsing with the cell culture medium, the devices were ready for plating with a cell suspension.
Preparation of transfected cells was done using a cell suspension of 1×10^6 cells per mL. Mammalianized BacMam gene delivery particles encoding a mixture of voltage-gated calcium ion channel alpha, beta and alpha-2-delta subunits was added to the cell suspension to reconstitute functional channels. […]

| SMILES | temporal response to FCCP (HASM cells) | temporal response to FCCP (HeLa cells) | temporal response to FCCP (MMM cells) | cellular response observed during application (electroscopic image) (HEPG2 cells) | averaged cellular temporal response (U-2OS cells; absence of oligomycin) | averaged cellular temporal response (U-2OS cells; presence of oligomycin (pretreatment)) | activity of blocker on temporal response to depolarizing stimulus [1] |
| --- | --- | --- | --- | --- | --- | --- | --- |
| N#CC(C#N)=NNc1ccc(OC(F)(F)F)cc1 [FCCP, carbonyl cyanide-4-(trifluoromethoxy)phenylhydrazone] | distinct kinetic and amplitude response | distinct kinetic and amplitude response | distinct kinetic and amplitude response | efflux of cellular contents | dose-dependent FCCP responses | dose-dependent FCCP responses | – |
| COc1ccc(CCN(C)CCCC(C#N)(c2ccc(OC)c(OC)c2)C(C)C)cc1OC (stereo not shown) [verapamil] | – | – | – | – | – | – | selective activity of a blocker on cultures that express the target protein |
